Key:
Type in all cases: biochemical
[1] = target: T1, MMP-2 (Homo sapiens, UniProt P08253); assay: In vitro MMP-2 inhibition test
T1 construct: purchased R&D Systems 902-MP
T1 sequence (P08253 110-660): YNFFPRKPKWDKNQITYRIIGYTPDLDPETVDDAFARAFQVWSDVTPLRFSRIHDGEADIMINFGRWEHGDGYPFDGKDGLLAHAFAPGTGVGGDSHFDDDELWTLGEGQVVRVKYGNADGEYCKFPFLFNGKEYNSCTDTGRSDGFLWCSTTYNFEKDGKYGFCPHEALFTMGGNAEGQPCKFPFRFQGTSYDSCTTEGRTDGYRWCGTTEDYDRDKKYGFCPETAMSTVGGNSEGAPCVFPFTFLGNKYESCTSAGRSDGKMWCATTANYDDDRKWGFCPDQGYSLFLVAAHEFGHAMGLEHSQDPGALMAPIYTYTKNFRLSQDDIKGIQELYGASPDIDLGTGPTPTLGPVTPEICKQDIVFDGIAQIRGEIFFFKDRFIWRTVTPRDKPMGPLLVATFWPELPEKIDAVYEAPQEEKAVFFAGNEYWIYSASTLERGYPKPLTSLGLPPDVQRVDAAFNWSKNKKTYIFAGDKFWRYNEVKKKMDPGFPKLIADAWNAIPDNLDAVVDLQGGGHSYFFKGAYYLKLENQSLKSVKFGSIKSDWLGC
From the text: (§1) The MMP-mediated amidolytic cleavage of a suitable peptide substrate leads to an increase in fluorescent light here too. The signal intensity of the fluorescent light is directly proportional to the enzyme activity. The active concentration of a test compound at which half the enzyme is inhibited (50% signal intensity of the fluorescent light) is reported as the IC50 value.
(§2) Recombinant MMP-2 (from R&D Systems, 902-MP) is chemically activated in accordance with the manufacturer's instructions using APMA. 1 μl of the test compound to be analysed (as a solution in DMSO, suitable concentrations, for example, 1 nM to 30 μM) is pipetted into 24 μl of activated enzyme (final concentration, for example, 2 nM) in reaction buffer (50 mM Tris/HCl pH 7.5, 10 mM CaCl2, 150 mM NaCl, 0.05% Brij®-35) in a white 384-hole microtiter plate (MTP). The enzymatic reaction is started by adding the intramolecularly quenched Mca-Pro-Leu-Gly-Leu-Dpa(Dnp)-Ala-Arg-NH2 substrate (final concentration, for example, 10 μM; R&D Systems, ES-001), so as to result in a total test volume of 50 μl. The course of the MMP-2 reaction is measured by measuring the fluorescence intensity (excitation 320 nm, emission 410 nm) over a suitable period of time (for example over 120 min at a temperature of 32° C.).

[2] = target: T2, MMP-9 (Homo sapiens, UniProt P14780); assay: In vitro MMP-9 inhibition test
T2 construct: purchased R&D Systems 911-MP
From the text: as §1
as §2, with “Recombinant MMP-9” for “Recombinant MMP-2”, “Systems, 911-MP)” for “Systems, 902-MP)”, “example, 0.1” for “example, 2”, “the MMP-9” for “the MMP-2”

[3] = target: T3, MMP-10 (Homo sapiens, UniProt P09238); assay: In vitro MMP-10 inhibition test
T3 construct: purchased R&D Systems 910-MP
From the text: as §1
as §2, with “MMP-10” for “MMP-2”, “910-MP)” for “902-MP)”, “Mca-Arg-Pro-Lys-Pro-Val-Glu-Nval-Trp-Arg-Lys(Dnp)-NH2” for “Mca-Pro-Leu-Gly-Leu-Dpa(Dnp)-Ala-Arg-NH2”, “ES-002),” for “ES-001),”

[4] = target: T4, MMP-13 (Homo sapiens, UniProt P45452); assay: In vitro MMP-13 inhibition test
T4 construct: purchased R&D Systems 511-MP
From the text: as §1
as §2, with “Recombinant MMP-13” for “Recombinant MMP-2”, “Systems, 511-MP)” for “Systems, 902-MP)”, “example, 0.1” for “example, 2”, “50” for “50 μl.”, “the MMP-13” for “the MMP-2”

T2 sequence (P14780 107-707 limits assumed): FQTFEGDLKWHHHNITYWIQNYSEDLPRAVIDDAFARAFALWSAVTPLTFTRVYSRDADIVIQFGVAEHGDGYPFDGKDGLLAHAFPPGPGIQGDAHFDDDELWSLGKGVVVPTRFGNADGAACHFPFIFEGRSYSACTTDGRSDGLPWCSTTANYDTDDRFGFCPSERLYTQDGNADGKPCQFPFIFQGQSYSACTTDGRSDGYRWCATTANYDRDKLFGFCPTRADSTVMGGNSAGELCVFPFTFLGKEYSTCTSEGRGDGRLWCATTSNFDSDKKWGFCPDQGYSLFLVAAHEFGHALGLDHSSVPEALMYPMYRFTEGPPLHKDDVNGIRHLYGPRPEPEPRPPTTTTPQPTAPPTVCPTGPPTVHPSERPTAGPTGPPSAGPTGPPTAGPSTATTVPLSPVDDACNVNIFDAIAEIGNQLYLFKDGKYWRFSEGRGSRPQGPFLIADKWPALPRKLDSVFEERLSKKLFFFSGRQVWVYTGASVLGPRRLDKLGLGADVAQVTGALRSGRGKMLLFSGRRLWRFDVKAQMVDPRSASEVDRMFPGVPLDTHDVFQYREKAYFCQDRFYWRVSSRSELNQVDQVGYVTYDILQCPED
T3 sequence (P09238 99-476): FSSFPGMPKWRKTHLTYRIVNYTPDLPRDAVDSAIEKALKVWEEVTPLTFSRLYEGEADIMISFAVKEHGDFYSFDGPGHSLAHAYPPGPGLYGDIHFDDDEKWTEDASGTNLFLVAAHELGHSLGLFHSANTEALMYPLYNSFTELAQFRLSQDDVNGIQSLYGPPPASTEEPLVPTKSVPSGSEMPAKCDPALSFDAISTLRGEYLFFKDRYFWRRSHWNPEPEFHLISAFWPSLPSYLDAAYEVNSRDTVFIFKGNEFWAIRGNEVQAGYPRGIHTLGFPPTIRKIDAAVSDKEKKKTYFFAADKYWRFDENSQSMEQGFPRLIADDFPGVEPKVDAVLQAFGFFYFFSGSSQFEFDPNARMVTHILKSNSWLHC

| Compound | IC50 [1] | IC50 [2] | IC50 [3] | IC50 [4] |
| --- | --- | --- | --- | --- |
| Cc1ccc2nnn(C[C@H]3CC[C@@H](C(=O)c4ccc(OCc5ccccc5)cc4)[C@@H]3C(=O)O)c(=O)c2c1 (single isomer, unassigned) [Example 92, (+)-(1RS,2RS,5SR)-2-[4-(Benzyloxy)benzoyl]-5-[(6-methyl-4-oxo-1,2,3-benzotriazin-3(4H)-yl)methyl]cyclopentanecarboxylic acid] | 47 nM | 13 nM | 15 nM | 27 nM |
| Cc1ccc2nnn(C[C@@H]3CC[C@H](C(=O)c4ccc(OCc5cccc(Cl)c5)cc4)[C@H]3C(=O)O)c(=O)c2c1 (racemic) [Example 103, (+/−)-(1RS,2RS,5SR)-2-{4-[(3-Chlorobenzyl)oxy]benzoyl}-5-[(6-methyl-4-oxo-1,2,3-benzotriazin-3(4H)-yl)methyl]cyclopentanecarboxylic acid] | 370 nM | 110 nM | 35 nM | 250 nM |
| Cc1ccc2nnn(C[C@H]3CC[C@@H](C(=O)c4ccc(OCc5cccc(C(F)(F)F)c5)cc4)[C@@H]3C(=O)O)c(=O)c2c1 (single isomer, unassigned) [Example 101, (+)-(1RS,2SR,5RS)-2-[(6-Methyl-4-oxo-1,2,3-benzotriazin-3(4H)-yl)methyl]-5-(4-{[3-(trifluoromethyl)benzyl]oxy}benzoyl)cyclopentanecarboxylic acid] | 380 nM | 100 nM | 110 nM | 210 nM |
| O=C(O)[C@H]1[C@H](Cn2nnc3ccc(C(F)(F)F)cc3c2=O)CC[C@@H]1C(=O)c1ccc(OCc2ccc(F)cc2)cc1 (racemic) [Example 12, (+/−)-(1RS,2RS,5SR)-2-{4-[(4-Fluorobenzyl)oxy]benzoyl}-5-{[4-oxo-6-(trifluoromethyl)-1,2,3-benzotriazin-3(4H)-yl]methyl}cyclopentanecarboxylic acid] | 42 nM | 5.9 nM | 15 nM | 39 nM |
| (+)-(1RS,2RS,5SR)-2-{4-[Cyclohexyl)methyl)sulphanyl]benzoyl}-5-{[4-oxo-6-(trifluoromethyl)-1,2,3-benzotriazin-3(4H)-yl]methyl}cyclopentanecarboxylic acid [Example 86] | 4800 nM | 1500 nM | 160 nM | 6600 nM |

Other lines, results leading:

| IC50 [1] | IC50 [2] | IC50 [3] | IC50 [4] | Compound |
| --- | --- | --- | --- | --- |
| 2000 nM | 940 nM | 200 nM | 1400 nM | O=C(O)[C@H]1[C@H](Cn2nnc3ccc(C(F)(F)F)cc3c2=O)CC[C@@H]1C(=O)c1ccc(OCc2cccc(C(F)(F)F)c2)cc1 (racemic) [Example 18, (+/−)-(1RS,2SR,5RS)-2-{[4-Oxo-6-(trifluoromethyl)-1,2,3-benzotriazin-3(4H)-yl]methyl}-5-(4-{[3-(trifluoromethyl)benzyl]oxy}benzoyl)cyclopentanecarboxylic acid] |
| 270 nM | 76 nM | 39 nM | 120 nM | COc1cccc(COc2ccc(C(=O)[C@H]3CC[C@@H](Cn4nnc5ccc(C)cc5c4=O)[C@@H]3C(=O)O)cc2)c1 (racemic) [Example 106, (+/−)-(1RS,2RS,5SR)-2-{4-[(3-Methoxybenzyl)oxy]benzoyl}-5-[(6-methyl-4-oxo-1,2,3-benzotriazin-3(4H)-yl)methyl]cyclopentanecarboxylic acid] |
| 190 nM | 55 nM | 22 nM | 230 nM | CCCCCSc1ccc(C(=O)[C@H]2CC[C@@H](Cn3nnc4ccc(C(F)(F)F)cc4c3=O)[C@@H]2C(=O)O)cc1 (racemic) [Example 88, (+/−)-(1RS,2SR,5RS)-2-{[4-Oxo-6-(trifluoromethyl)-1,2,3-benzotriazin-3(4H)-yl]methyl}-5-[4-(pentylsulphanyl)benzoyl]cyclopentanecarboxylic acid] |
| 4200 nM | 470 nM | 57 nM | 2300 nM | O=C(O)[C@@H]1[C@@H](Cn2nnc3ccc(C(F)(F)F)cc3c2=O)CC[C@H]1C(=O)c1ccc(SCc2ccccc2)cc1 (single isomer, unassigned) [Example 75, (+)-(1RS,2RS,5SR)-2-[4-(Benzylsulphanyl)benzoyl]-5-{[4-oxo-6-(trifluoromethyl)-1,2,3-benzotriazin-3(4H)-yl]methyl}cyclopentanecarboxylic acid] |
| 300 nM | 89 nM | 52 nM | 150 nM | COc1cccc(COc2ccc(C(=O)[C@@H]3CC[C@H](Cn4nnc5ccc(C)cc5c4=O)[C@H]3C(=O)O)cc2)c1 (single isomer, unassigned) [Example 107, (+)-(1RS,2RS,5SR)-2-{4-[(3-Methoxybenzyl)oxy]benzoyl}-5-[(6-methyl-4-oxo-1,2,3-benzotriazin-3(4H)-yl)methyl]cyclopentanecarboxylic acid] |
| 970 nM | 440 nM | 37 nM | 1000 nM | Cc1cccc(COc2ccc(C(=O)[C@@H]3CC[C@H](Cn4nnc5ccc(C(F)(F)F)cc5c4=O)[C@H]3C(=O)O)cc2)c1 (single isomer, unassigned) [Example 16, (+)-(1RS,2RS,5SR)-2-{4-[(3-Methylbenzyl)oxy]benzoyl}-5-{[4-oxo-6-(trifluoromethyl)-1,2,3-benzotriazin-3(4H)-yl]methyl}cyclopentanecarboxylic acid] |
| 79 nM | 3 nM | 19 nM | 45 nM | O=C(O)[C@@H]1[C@@H](Cn2nnc3ccc(C(F)(F)F)cc3c2=O)CC[C@H]1C(=O)c1ccc(OCc2ccc(Cl)cc2)cc1 (single isomer, unassigned) [Example 25, (+)-(1RS,2RS,5SR)-2-{4-[(4-Chlorobenzyl)oxy]benzoyl}-5-{[4-oxo-6-(trifluoromethyl)-1,2,3-benzotriazin-3(4H)-yl]methyl}cyclopentanecarboxylic acid] |
